# Assay results from article PMC12376458, “Multi-omics analysis reveals ACOT1 as the key target of piperine in Piper Longum-mediated gastric cancer treatment” (Chinese Medicine, 2025).
# Molecular target: T1, ACOT1 (Acyl-CoA Thioesterase 1) (Homo sapiens, UniProt Q86TX2)
# T1 construct: endogenous protein in NP-40 cell lysate, western blot read-out; mouse MFC used for xenograft
# T1 sequence (Q86TX2 2-421): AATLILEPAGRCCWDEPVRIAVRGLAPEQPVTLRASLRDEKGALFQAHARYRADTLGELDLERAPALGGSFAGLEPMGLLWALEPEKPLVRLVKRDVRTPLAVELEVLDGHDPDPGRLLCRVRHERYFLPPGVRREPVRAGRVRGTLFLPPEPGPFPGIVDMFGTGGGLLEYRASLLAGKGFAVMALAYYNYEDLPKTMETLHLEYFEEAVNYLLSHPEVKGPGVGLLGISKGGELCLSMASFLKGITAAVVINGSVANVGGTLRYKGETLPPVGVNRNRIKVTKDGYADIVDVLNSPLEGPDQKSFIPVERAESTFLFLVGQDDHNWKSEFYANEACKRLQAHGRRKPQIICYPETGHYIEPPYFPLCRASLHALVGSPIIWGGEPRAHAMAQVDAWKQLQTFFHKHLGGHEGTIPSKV
# Test: cellular thermal shift assay (CETSA) in cell lysate, western blot
# Format: biochemical
# Conditions: 60 μM piperine vs DMSO, 4 °C 5 h, then 35–60 °C for 3 min
smiles,measurement,value
O=C(/C=C/C=C/c1ccc2c(c1)OCO2)N1CCCCC1 [piperine],"cellular thermal shift assay (CETSA) in cell lysate, western blot",CETSA experimental results showed that piperine treatment enhanced the thermal stability of ACOT1
